Laboratory results as given in ChEMBL document CHEMBL5053502, “Too Hot to Handle: Antibacterial Peptides Identified in Ghost Pepper” (J Nat Prod, 2021).
Converted amounts (≈) assume the structure as drawn. The source made the active and inactive calls. The calls are words filed in the database; no cut-off is given here. Where a SMILES comes first, the peptide text is derived from it. Bridges are numbered along the chain shown (N, C = ends). [ ]: non-standard residue; d: D form. pGlu = O=C1CC[C@@H](C(=O)O)N1

Key:
Escherichia coli = test: Antibacterial activity against Escherichia coli ATCC 25922 assessed as bacterial growth inhibition incubated for 4 hrs followed by resazurin addition and measured after 1 hr by fluorescence based analysis; type: functional, organism-based
Acinetobacter baumannii [1] = test: Antibacterial activity against Acinetobacter baumannii 5075 assessed as bacterial growth inhibition incubated for 5 hrs by absorbance based analysis; type: functional, organism-based; settings: Acinetobacter baumannii, 5075, 5 h
Acinetobacter baumannii [2] = test: Bactericidal activity against Acinetobacter baumannii 5075 assessed as reduction in cell viability incubated for 24 hrs; type: functional
Cell membrane [3] = test: Induction of outer membrane permeabilization in Escherichia coli ATCC 25922 assessed as increase in NPN uptake at 10 to 40 uM by NPN-dye based fluorescence analysis; type: subcellular; settings: dose 10-40 µM
Cell membrane [4] = test: Induction of inner membrane permeabilization in Escherichia coli ATCC 25922 assessed as increase in absorbance at 420 nm in presence of ONPG by absorbance based assay; type: subcellular
[5] = Hemolytic activity in human RBC assessed as hemolysis at 2.5 to 40 uM incubated for 1 hr by absorbance based analysis; type: ADME, tissue-based; settings: erythrocyte, dose 2.5-40 µM
Pseudomonas aeruginosa = test: Antibacterial activity against Pseudomonas aeruginosa 1423 assessed as bacterial growth inhibition incubated for 7 hrs by absorbance based analysis; settings: Pseudomonas aeruginosa, 1423, 7 h
Klebsiella pneumoniae = test: Antibacterial activity against Klebsiella pneumoniae VK148 assessed as bacterial growth inhibition incubated for 4 hrs followed by resazurin addition and measured after 1 hr by fluorescence based analysis

Row | Activity (Cell membrane [3]) [%] | Activity (Cell membrane [4]) | SMILES | IC50 (Escherichia coli) [µM] | IC50 (Acinetobacter baumannii [1]) [µM] | MBC (Acinetobacter baumannii [2]) [µM] | Activity [5] | IC50 (Pseudomonas aeruginosa) [µM] | IC50 (Klebsiella pneumoniae) [µM]
1 | – | – | CC[C@H](C)[C@H](NC(=O)[C@H](CCCCN)NC(=O)CNC(=O)[C@H](CC(C)C)NC(=O)CNC(=O)[C@H](CCCCN)NC(=O)[C@@H](NC(=O)[C@H](CC(C)C)NC(=O)[C@H](Cc1cnc[nH]1)NC(=O)[C@H](CCCNC(=N)N)NC(=O)CNC(=O)[C@@H](NC(=O)[C@@H](N)CCCCN)C(C)C)C(C)C)C(=O)N[C@@H](Cc1ccccc1)C(=O)N[C@@H](CCCNC(=N)N)C(=O)N[C@@H](C)C(=O)NCC(=O)N[C@H](CCCCN)C(=O)N[C@@H](C(=O)N[C@H](C(=O)N[C@@H](Cc1ccccc1)C(=O)N[C@H]1CSSC[C@@H](C(=O)N[C@@H](CCCCN)C(=O)N[C@H](C(=O)N[C@H]2CSSC[C@@H](C(=O)N[C@@H](C)C(=O)O)NC(=O)[C@@H]3CSSC[C@H](NC(=O)[C@H](CC(C)C)NC(=O)CNC(=O)[C@H](CC(N)=O)NC2=O)C(=O)N[C@@H](CC(=O)O)C(=O)N[C@@H](Cc2ccc(O)cc2)C(=O)N3)[C@@H](C)O)NC(=O)[C@H]([C@@H](C)O)NC(=O)[C@H](CC(N)=O)NC1=O)[C@@H](C)CC)C(C)C | 7.6 | – | – | – | – | –
2 | 100 | Active | CC[C@H](C)[C@@H]1NC(=O)[C@@H]2CSSC[C@H](NC(=O)[C@H](CCCCN)NC(=O)[C@H](C)NC(=O)[C@H](CCSC)NC(=O)[C@@H](NC(=O)[C@@H](NC(=O)[C@@H]3CCCN3C(=O)[C@H](CC(=O)O)NC(=O)[C@H](CC(C)C)NC(=O)[C@@H](NC(=O)[C@H](CCC(=O)O)NC(=O)[C@@H]3CCC(=O)N3)[C@@H](C)O)[C@@H](C)CC)CSSC[C@@H](C(=O)N[C@H](C(=O)N[C@@H](CC(C)C)C(=O)O)C(C)C)NC(=O)CNC(=O)[C@H](C)NC1=O)C(=O)N[C@@H](C(C)C)C(=O)N[C@@H](CC(C)C)C(=O)N[C@@H](CCCCN)C(=O)N[C@H]1CSSC[C@H](NC(=O)[C@H](Cc3c[nH]c4ccccc34)NC(=O)[C@H](C)NC(=O)[C@H](CCCCN)NC(=O)[C@H](CCCCN)NC(=O)CNC1=O)C(=O)N[C@@H](CC(C)C)C(=O)N[C@@H]([C@@H](C)O)C(=O)N[C@@H](CCCCN)C(=O)N2 ([pGlu]ETLDPICMAKCVLKCGKKAWCLTKCIAGCVL-OH; disulfide 8-30, 12-26, 16-22) | 14.5 | 4 | 8.6 (≈ 29.7 µg/mL) | Non-Toxic | 6.9 | 13.2
